Values belong to the molecule of their own block, whether it stands above or below them.
Assays:
[1] = test system: Lewis rats with adjuvant induced arthritis; experiment: Adjuvant-induced arthritis (AIA) in Lewis rats: paw swelling, erythema, clinical and histological scores; assay type: in vivo, rat
[2] = rat, in vivo, 3 mg/kg
rat ClA model = experiment: Rat ClA model, paw swelling and erythema, disease severity; assay type: in vivo; conditions: antibody 3 mg/kg i.v., compounds 30, 10, 3 mg/kg b.i.d.
Protocol: Anti alpha-4 antibodies, and the compounds of Formulae W and Y were tested in the rat ClA model according to the methods shown in Table 14 below.
(§1) The results in FIG. 6 show the results for compounds. There were 8 rats per group in the efficacy study. Paw swelling and erythema were measured daily and the tarsal paws collected for histological analysis at the end of the study. Plasma which was heparinized was collected at 12 hours (i.e., the trough level) and at 4 horus after the last dose for compound measurement (FIG. 6).

[3] = Blood/plasma levels of compound in rat ClA model (relative to receptor saturation); assay type: in vivo; conditions: at 12 hours, all concentrations tested
Protocol: as §1

[4] = test system: DBA/1 LacJ mice with collagen-induced arthritis; experiment: Murine collagen-induced arthritis (ClA) model, clinical scores; assay type: in vivo, mouse; conditions: therapeutic ClA model, 100 mg/kg b.i.d. (Table 12)
Protocol: A murine collagen-induced arthritis (ClA) model was used to examine the pharmacological effect of anti-alpha4-integrin antibodies prophylactically, semi-therapeutically and therapeutically. Dosing of the antibody was begun on day 20 for the prophylactic animals. […] The results seen with the treatment of the ClA mice is seen in FIG. 1.
Peripheral blood leucocytes (PBLs) from mice treated with anti-alpha4, anti-α4β7 and anti-VCAM1 antibodies were collected at 4, 12 and 24 hours after antibody dosing. Cells were stained with goat anti-rat antibodies to confirm antibodies in circulation.
(§2) 100 DBA/1 LacJ male mice, ages 6-8 weeks were obtained from Jackson Laboratories. The mice were immunized at Day 0 as follows: 100 μg bovine type II collagen (Chondrex) in Complete Freund's adjuvant (CFA, Sigma) were injected into the mice. At Day 21, another 100 μg bovine type II collagen (Chondrex) in Incomplete Freund's Adjuvant (IFA, Sigma) was injected into the mice. Treatment with the compound began when the animals had the disease (i.e., 100% therapeutic).
The mice are scored daily after the boost. […] Treatment continued for 3-weeks-of dosing. Dosing was every other day for the antibody group and control group.
DBA/1 LacJ mice, aged 8 weeks will be immunized with bovine collagen (100 μg/mice) in CFA and re-challenge on day 21 in IFA.

[5] = Blood levels of compound in murine ClA model; assay type: in vivo; conditions: male, DBA/1 LacJ, mouse, whole blood, 100 mg/kg b.i.d., 16 hours after dosing
Protocol: The effect of the compound of Formula P was evaluated in a therapeutica ClA model.
as §2

[6] = Plasma/blood compound levels in AIA rats (PK, relative to receptor saturation); conditions: 12 hours after dosing, all concentrations tested
[7] = test system: human lymphocyte binding to rat brain cells; conditions: rat brain cells stimulated with tumor necrosis factor; cited from earlier work
VLA-4 = VLA-4 (Homo sapiens, UniProt P13612); conditions: cited from earlier work

- melting point: 158 to 160 °C
Molecule: Cc1ccc(S(=O)(=O)N2CCC[C@H]2C(=O)N[C@@H](Cc2ccc(OC(=O)N3CCN(CCO)CC3)cc2)C(=O)OC(C)(C)C)cc1

Molecule: CC(C)OC(=O)[C@H](Cc1ccc(OC(=O)N2CCN(C)CC2)cc1)NC(=O)[C@H]1N(S(=O)(=O)c2cccnc2)CSC1(C)C [Formula N, N-[N-(3-pyridinesulfonyl)-L-3,3-dimethyl-4-thiaprolyl]-O-[I-methylpiperazin-4-ylcarbonyl]-L-tyrosine isopropyl ester]
- clinical and histological scores ([1]; AIA animal model, 30 mg/kg b.i.d.): ameliorate clinical and histological scores
- disease severity ([1]; AIA rats, 3 mg/kg): no effect on disease severity
- compound present in the blood relative to receptor saturation [2]: below receptor saturation
- disease severity (rat ClA model): neither the compound of Formula N nor Y had any impact on disease severity

- blood levels of the compound relative to receptor saturation [3]: above receptor saturation
- concentration at 16 h [5]: 1000 ng/mL
- levels of the compound relative to receptor saturation [6]: above receptor saturation
Molecule: CCN(CC)c1ncc(N(CC)S(=O)(=O)c2ccc(Cl)cc2)c(NC(Cc2ccc(OC(=O)N3CCCC3)cc2)C(=O)O)n1 (stereo not drawn) [Formula P]
- disease ([1]; AIA rats, all concentrations tested (30, 10, 3 mg/kg b.i.d. p.o.)): ameliorate disease at all concentrations tested
- disease progression [4]: no effect on disease progression

B1: mu MAb 21.6: mouse monoclonal antibody specific for the α4 subunit of VLA-4; donor immunoglobulin of the humanized antibodies (antibody, V domains shown)
VH: EVQLQQSGAELVKPGASVKLSCTASGFNIKDTYIHCVKQRPEQGLEWIGRIDPANGYTKYDPKFQGKATITADTSSNTAYLQLSSLTSEDTAVYFCAREGYYGNYGVYAMDYWGQGTSVTVSSAK
VL: DIQMTQSPSSLSASLGGKVTITCKTSQDINKYMAWYQHKPGKRPRLLIHYTSALQPGIPSRFSGSGSGRDYSFNISNLEPEDIATYYCLQYDNLWTFGGGTKLEIK
- human lymphocyte binding to tissue cultures of rat brain cells [7]: inhibit
- binding affinity for VLA-4 (VLA-4): about 10^9 M^−1

— US20050074451A1, “Methods and compositions for treating rheumatoid arthritis” (Elan Pharmaceuticals, Inc., priority 2003, published 2005)
